# Test results: US20210196731A1, “COMPOSITIONS AND METHODS FOR TREATING OCULAR INFLAMMATION AND OCULAR SCARRING” (priority 2018, published 2021)
# System: PPARγ
# Assay: Western blot of HTCF protein lysate, PPARγ
# Assay type: cell-based, human
# Settings: AHGFs; ASA 100, 400, 1600 μg/ml, 48 hrs
# Method: Cells were lysed in lysis buffer (PhosphoSafe Extraction Reagent, Novagen) containing a protease inhibitor cocktail (P2714, Sigma-Aldrich). Crude protein lysate was quantified using a Pierce BCA protein assay kit (ThermoFisher, Mississauga, ON) and 10 ug from each sample was resolved using a Novex WedgeWell 4-20% tris-glycine gel (Invitrogen). Using an iBlot Gel Transfer Device (IB1001, Invitrogen), the separated protein was transferred to a nitrocellulose membrane (1B301001, iBlot Transfer Stack, Invitrogen) which was then blocked with 5% (w/v) bovine serum albumin (Sigma-Aldrich) in Tris buffered saline (TBST) for 1 hour at room temperature. The membranes were incubated overnight at 4° C. with primary antibody diluted in TBST containing 5% BSA (w/vol). Primary antibodies used were as follows: collagen 1 (ab138492, Abcam), αSMA (ab5694, Abcam), MMP9 (ab38898, Abcam), PPARγ (sc-7273, SantaCruz Biotechnology), SMAD2/3 (ab63672, Abcam), pSMAD2/3 (ab63399, Abcam) and GAPDH (sc-47724, Santa Cruz Biotechnology, Inc.). […] Imaging and relative densiometric quantification was accomplished using a ChemiDoc MP System (Bio-Rad Laboratories, Inc.) connected to Image Lab (Version 6, Bio-Rad Laboratories, Inc.).
smiles,measurement,value
"CC(=O)Oc1ccccc1C(=O)O [ASA, acetylsalicylic acid]",expression of PPARγ,significantly induce expression of PPARγ
